Laboratory results: publication PMC11694061 (Cancer Research, 2024)
Values belong to the compound of their own block, whether it stands above or below them.

Tests used:
MIA PaCa-2 cells = test: Proliferation, MIA PaCa-2 (2D); format: cell-based; settings: Homo sapiens, MIA PaCa-2, 72 hours
Procedure: (§1) Cells were inoculated onto 96-well plates and treated with compounds in serial dilutions for 3 or 5 days. […] The cell viability of primary patient samples was tested using the CellTiter-Glo Luminescent Assay kit (G7573, Promega) according to the manufacturer’s instructions. […] The optical density (OD) values were obtained using a SPARK microplate reader (Tecan). IC50 was calculated using GraphPad Prism 8.0.2 (nonlinear regression analysis with four parameters). Drug synergy was evaluated with combination index (CI) values using CalcuSyn Demo Version 2.0 software. CI > 1 indicates antagonism, CI < 1 indicates synergy, and CI = 1 indicates additivity.

MIA PaCa-2/R cells = test: Proliferation, MIA PaCa-2/R (2D); format: cell-based; settings: Homo sapiens, MIA PaCa-2/R (AMG510-resistant), 72 hours
Procedure: as §1

[1] = system: NCI-H358 cells (KRAS^G12C); test: 3D growth inhibition, NCI-H358; format: cell-based; settings: Homo sapiens, NCI-H358, 120 h, read-out: IC50 (3D culture), NCI-H358
Procedure: (§2) Cells were inoculated onto 96-well plates and treated with compounds in serial dilutions for 3 or 5 days. Cell viability was assessed using sulforhodamine B (230162, Sigma-Aldrich) assay and methyl thiazolyl tetrazolium (M5655, Sigma-Aldrich) assay for adherent and suspended cells, respectively, in accordance with previously described methods ([48]). The cell viability of primary patient samples was tested using the CellTiter-Glo Luminescent Assay kit (G7573, Promega) according to the manufacturer’s instructions. Three-dimensional cultivation was conducted in 96-well ultralow attachment plates (7007, Corning). The optical density (OD) values were obtained using a SPARK microplate reader (Tecan). IC50 was calculated using GraphPad Prism 8.0.2 (nonlinear regression analysis with four parameters). Drug synergy was evaluated with combination index (CI) values using CalcuSyn Demo Version 2.0 software. CI > 1 indicates antagonism, CI < 1 indicates synergy, and CI = 1 indicates additivity.

K562 cells = test: Proliferation, K562; format: cell-based, human; settings: Homo sapiens, K562, read-out: IC50 (cell proliferation inhibition in K562 cells)
Procedure: as §1

BxPC-3 cells (KRAS-WT) = test: 3D growth inhibition, BxPC-3; format: cell-based; settings: Homo sapiens, BXPC-3, 120 h, read-out: IC50 (3D culture), BxPC-3
Procedure: as §2

293T cells (KRAS-WT) = test: 3D growth inhibition, 293T; format: cell-based; settings: Homo sapiens, HEK-293T, 120 h, read-out: IC50 (3D culture), 293T
Procedure: as §2

GP2d cells (KRAS^G12D) = test: 3D growth inhibition, GP2d; format: cell-based; settings: Homo sapiens, 120 h, read-out: IC50 (3D culture), GP2d
Procedure: as §2

SW620 cells (G12V) = test: 3D growth inhibition, SW620; format: cell-based; settings: Homo sapiens, SW-620, 120 h, read-out: IC50 (3D culture), SW620
Procedure: as §2

[2] = system: MIA PaCa-2 xenografts (KRAS^G12C); test: MIA PaCa-2 xenograft; format: in vivo, mouse; settings: BI-3406 50 mg/kg twice daily, end of 24-day period
Procedure: (§3) Animal experiments were carried out following the guidelines of the Institutional Animal Care and Use Committee of Shanghai Institute of Materia Medica, Chinese Academy of Sciences, and Lingang Laboratory. […] All mice were raised till the tumor volumes reached approximately 100 mm^3 and were randomly assigned to either the vehicle or treated groups (n = 5/group). […] Body weights and tumor sizes of mice were recorded every 3 days. Tumor volumes were calculated as follows: ½ × length × width^2. On the final day of the experiment, the mice were euthanized and tumor samples were prepared for Western blot analysis.

[3] = system: HPAF-II cells (KRAS^G12D); test: 3D growth inhibition, HPAF-II; format: cell-based; settings: Homo sapiens, 120 h, read-out: IC50 (3D culture), HPAF-II
Procedure: as §2

K562 xenografts = test: K562 xenograft; format: in vivo; settings: imatinib (100 mg/kg) monotherapy, orally daily
Procedure: as §3

IC50 (MIA PaCa-2 cells): 25 nM | IC50 (MIA PaCa-2/R cells): 590000 nM
Compound: C=CC(=O)N1CCN(c2nc(=O)n(-c3c(C)ccnc3C(C)C)c3nc(-c4c(O)cccc4F)c(F)cc23)[C@@H](C)C1 [AMG510, sotorasib]

Compound: COc1cc2nc(C)nc(N[C@H](C)c3cc(N)cc(C(F)(F)F)c3)c2cc1O[C@H]1CCOC1 [BI-3406]
IC50 [1]: 11 nM | IC50 (K562 cells): 199 ± 32 nM | IC50 (BxPC-3 cells (KRAS-WT)): 692 nM | IC50 (293T cells (KRAS-WT)): > 10000 nM | IC50 (GP2d cells (KRAS^G12D)): 4.1 nM | IC50 (SW620 cells (G12V)): 18 nM | tumor growth inhibition [2]: 62.0% | IC50 [3]: 61.9 nM

Compound: Cc1ccc(NC(=O)c2ccc(CN3CCN(C)CC3)cc2)cc1Nc1nccc(-c2cccnc2)n1 [imatinib]
TGI (K562 xenografts): 50.9%
